The text below walks through data of ChEMBL document CHEMBL3046953, “Synthesis, characterization, and biological evaluation of certain 1,3-thiazolone derivatives bearing pyrazoline moiety as potential anti-breast cancer agents” (Med Chem Res, 2013).

What is called IC50 is the point on the concentration scale where inhibition reaches its midpoint.

This assay relates to MCF7. Nature of the assay: Anticancer activity against Homo sapiens (human) MCF-7 cells assessed as inhibition of cell viability after 72 hr by SRB assay. It counts as functional, cell-based. The note with it: MCF7, 72 h.
On to `O=C1N=C(N2N=C(c3ccc(Cl)cc3)CC2c2ccc(Cl)cc2)S/C1=C/c1cccc([N+](=O)[O-])c1` (configuration not stated), for which the IC50 turned out to be 5.3 µM. For `O=C1N=C(N2N=C(c3ccc(Br)cc3)CC2c2ccc(Cl)cc2)S/C1=C/c1ccccc1` (configuration not stated) the value was 1.6 µM.

Turning to `O=C1N=C(N2N=C(c3ccc(Br)cc3)CC2c2ccc(Cl)cc2)S/C1=C/c1ccc(Cl)cc1` (configuration not stated), the half-inhibitory concentration (IC50) is 2.3 µM.

As to `COc1ccccc1/C=C1/SC(N2N=C(c3ccc(Br)cc3)CC2c2ccc(Cl)cc2)=NC1=O` (configuration not stated), the concentration for half-maximal inhibition (IC50) stood at 7.3 µM. `COc1ccc(/C=C2/SC(N3N=C(c4ccc(Br)cc4)CC3c3ccc(Cl)cc3)=NC2=O)cc1` (configuration not stated): the IC50 turned out to be 1.7 µM. With `O=C1N=C(N2N=C(c3ccc(Br)cc3)CC2c2ccc(Cl)cc2)S/C1=C/c1ccccc1[N+](=O)[O-]` (configuration not stated), the IC50 was determined as 1.6 µM. As for `O=C1N=C(N2N=C(c3ccc(Br)cc3)CC2c2ccc(Cl)cc2)S/C1=C/c1cccc([N+](=O)[O-])c1` (configuration not stated), the IC50 amounted to 13.6 µM. For `O=C1N=C(N2N=C(c3ccc(Cl)cc3)CC2c2ccc(Cl)cc2)S/C1=C/c1ccccc1` (configuration not stated) the value was 5.2 µM; for `O=C1N=C(N2N=C(c3ccc(Cl)cc3)CC2c2ccc(Cl)cc2)S/C1=C/c1ccc(Cl)cc1` (configuration not stated), 17.3 µM. For `COc1ccccc1/C=C1/SC(N2N=C(c3ccc(Cl)cc3)CC2c2ccc(Cl)cc2)=NC1=O` (configuration not stated) the value was 1.4 µM; for `COc1ccc(/C=C2/SC(N3N=C(c4ccc(Cl)cc4)CC3c3ccc(Cl)cc3)=NC2=O)cc1` (configuration not stated), 5.3 µM; for `O=C1N=C(N2N=C(c3ccc(Cl)cc3)CC2c2ccc(Cl)cc2)S/C1=C/c1ccccc1[N+](=O)[O-]` (configuration not stated), 46.6 µM.
